# Reference: article PMC11875816 (Heliyon, 2025)
# How the values were obtained:
# [1] = test system: TNF-α; assay: TNF-α gene expression in LPS-induced RAW 264.7 macrophages (qPCR); assay type: cell-based, murine
# Experimental: RAW 264.7 cells at passage 3 were seeded at 1 × 10^5 cells/mL to each well of a 6-well cell culture plate. The cells were cultured until it reached 70−80 % confluency and media were changing every 2 days. Upon confluency, removed the old media and cells were pre-treated with 1 mL non-serum media for 10−15 min in the incubator. All controls and samples, dilutions are prepared in non-serum media. Removed non-serum media and added with LPS (1 μg/mL) in non-serum media for 24 h. Next day, removed the LPS containing media and washed once with 1 × PBS and then the cells were treated with SFN solutions for 1 h. Removed the treatment solution, washed twice with 1 × PBS, pH 7.4. The cells were dissociated and collected by sedimentation (1500 rpm, 6 min).
# The total RNA content was extracted following the TRIzol method according to the manufacturer's protocol. Quantification of mRNAs abundance was determined using 1-step reverse transcription real-time quantitative PCR with the QuantiTect SYBR Green RT-PCR Kit (Qiagen, Germany), performed on a Rotor-Gene Q Real-Time system (Qiagen, Germany). […] Target gene expression was normalized to constitutively expressed ACT-β gene, and the relative quantity of target gene mRNAs was expressed as 2^−ΔΔCt using the relative comparative threshold cycle method as previously described [[33], [34], [35]]. […]
# [2] = test system: Aβ1-42-induced AD mice; assay: Brain tissue TUNEL assay (hippocampal apoptosis); assay type: in vivo, ICR male mice; details: Aβ1-42 AD mice; SFN 10 mg/kg oral; AD group 40.3 ± 10.4
# Excerpt: (§1) Seven-week-old ICR male mice (25−30 g body weight range) were purchased from the Samtaco BIO, KOREA (Osan-si, Gyeonggi-do, Korea). […] All efforts were made to minimize suffering and the number of animals used. One day before dissection, only water was provided and food was fasted. Acclimatized experimental animals were grouped into seven containing 7 mice each (Table 1 and Fig. 1).
# (§2) Prepare the test substance at a concentration appropriate for each test using purified water. […] Amyloid beta (Aβ1-42) was prepared and administered following standard protocols. BSEP was orally administered at doses of 200 mg/kg/day and 400 mg/kg/day for one week before and after Aβ1-42 injection, each at a volume of 200 μL. Following intravenous administration, broccoli extract was orally administered at the same doses for two weeks.
# (§3) Aβ1-42 ([…]) was surgically injected into the brain ventricle of anesthetized mice (intravenous [IV] injection of xylazine [5 mg/kg] and ketamine [50 mg/kg]). The skull was precisely punctured at specific coordinates using a small drill, and amyloid beta was injected deeply into the brain using a microinjector. The control group underwent the same procedure with saline injections instead. Following surgery, the incision sites were disinfected and sutured, and the animals were allowed to recover in a cage.
# [3] = test system: Aβ1-42-induced AD mice; assay: Morris water maze test; assay type: in vivo, ICR male mice; details: Aβ1-42 AD mice; for average escape latency time over the three days: AD group 42.7 ± 9.13, normal 27.66 ± 3.97
# Excerpt: as §1, §2, §3
# (§4) The water maze test evaluates the spatial memory of experimental animals by filling a circular pool (120 cm diameter × 60 cm hight) with water to a depth of 30 cm (maintained at 23 ± 2 °C). An escape zone (10 cm diameter) is designated in one section of the four quadrants, with the platform positioned 1 cm below the water surface and made invisible with skim milk powder. If the animal fails to locate the platform within 60 s, it is gently guided there and allowed to familiarize itself for 20 s. The test is conducted at 30-min intervals, four times daily for three consecutive days. Observations are recorded using a ceiling-mounted camera and analyzed using SMART 3.0 software (Panlab S.L., Barcelona, Spain).
# [4] = test system: Aβ1-42-induced AD mice; assay: Passive avoidance test; assay type: in vivo, ICR male mice
# Excerpt: as §1, §2, §3
# The passive avoidance experiment is a commonly used method for assessing enhancements in learning and memory capabilities. The experiment was conducted in a room with noise levels below 60 dB and dim lighting. The measuring instrument, Shuttle Box Test Package (Med Associates Inc., Vermont, USA), consisting of two rooms of equal size (25 × 25 cm). An automatic guillotine door was installed on the wall separating the two rooms. One room was illuminated (20 W light bulb), while the other remained dark. The mice were trained to associate the dark environment with an aversive stimulus. In the experiment (n = 3), upon entry into the dark room, an electric shock (foot-shock) was administered by passing a current of 3 mA for 5 s through a stainless-steel grid beneath the room. This procedure facilitated the mouse's recognition of the association between the dark environment and the aversive stimulus.
# [5] = test system: acetylcholine (ACh); assay: Brain tissue acetylcholine (ACh) level; parameters: species or system ICR male mice; details: mouse, in vivo
# Excerpt: as §1, §2, §3
# [6] = biological target: acetylcholinesterase (AChE) (Mus musculus, UniProt P21836); details: SFN 10 mg/kg oral
# Chain of acetylcholinesterase (AChE) (P21836 32-614): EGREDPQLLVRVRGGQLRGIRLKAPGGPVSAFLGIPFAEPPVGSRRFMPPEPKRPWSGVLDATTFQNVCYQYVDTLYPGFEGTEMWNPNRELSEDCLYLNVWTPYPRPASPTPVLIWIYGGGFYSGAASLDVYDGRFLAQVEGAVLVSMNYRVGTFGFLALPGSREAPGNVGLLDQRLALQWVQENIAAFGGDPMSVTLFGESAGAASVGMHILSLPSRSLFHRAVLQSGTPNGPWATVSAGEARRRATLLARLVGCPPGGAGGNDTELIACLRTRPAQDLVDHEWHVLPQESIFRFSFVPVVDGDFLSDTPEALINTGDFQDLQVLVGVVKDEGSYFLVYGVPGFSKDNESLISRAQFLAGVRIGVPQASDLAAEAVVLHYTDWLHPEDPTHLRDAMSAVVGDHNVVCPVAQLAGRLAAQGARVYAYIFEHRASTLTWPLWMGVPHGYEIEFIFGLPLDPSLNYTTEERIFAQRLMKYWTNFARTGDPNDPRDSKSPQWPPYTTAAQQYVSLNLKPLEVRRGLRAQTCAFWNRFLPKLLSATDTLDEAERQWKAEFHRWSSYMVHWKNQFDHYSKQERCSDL
# Experimental: All efforts were made to minimize suffering and the number of animals used. One day before dissection, only water was provided and food was fasted. Acclimatized experimental animals were grouped into seven containing 7 mice each (Table 1 and Fig. 1).
# as §2, §3
# [7] = In vivo oral absorption of SFN and BSE in rats (pharmacokinetics); parameters: species or system Sprague–Dawley rats; details: for AUCinf / AUClast / Cmax / MRT / T1/2 / Tmax: plasma SFN
# Experimental: Sprague–Dawley rats (males, 6–7 weeks old, 200–250 g) were purchased from G-bio (Gwangju, Republic of Korea). The animals were housed under standard conditions in terms of temperature (23 ± 2 °C), relative humidity (RH; 55 ± 10 %), and light (12/12 h light/dark cycle). The animals had ad libitum access to a standard laboratory diet (Nestlé Purina PetCare Research, St. Louis, MO, USA) and ion-sterilized tap water. Ethical approval for this study was obtained from the IACUC of Mokpo National University (Jeonnam, Republic of Korea; approval no. MNU-IACUC-2023-009).
# To examine the distinction of pharmacokinetic parameters of SFN after IV injection and oral administration of SFN or BSEP (containing 3 % SFN), Sprague–Dawley rats were orally administered 400 μL of SFN dissolved in 0.5 % sodium CMC (5 mg/kg, SFN-oral) or aqueous solution of BSEP (equivalent to 5 mg/kg SFN, BSEP-oral). To calculate the oral bioavailability, rats were intravenously injected with 200 μL of SFN (5 mg/kg SFN dissolved in 0.5 % sodium CMC) via the femoral vein. Then, 200-μL blood samples were collected from the cannulated femoral artery at predetermined time points and immediately centrifuged at 13,000×g for 5 min at 4 °C. The separated plasma samples were kept frozen at −80 °C until analysis.
# To determine the plasma concentrations of SFN, the working solutions of SFN of 20, 15, 10, 5, 2, 1, 0.6, and 0.2 μg/mL, and 5 μg/mL phenylethyl isothiocyanate (internal standard, IS) were prepared in acetonitrile. Then, 10 μL of each working solution and 10 μL of IS were spiked with 180 μL of rat blank plasma for standard solution. Separately, 180 μL of each plasma sample was spiked with 10 μL of IS solution and 10 μL of acetonitrile. Next, 200 μL of a mixture of acetonitrile, water, and ethanol (25:25:50, v/v/v) was added to each plasma sample spiked with IS, followed by vortex mixing. After centrifugation at 13,000×g for 5 min at room temperature, the supernatant was transferred to another vial for further extraction using an HLB SPF μElution plate (Waters Corp., Milford, MA, USA). Each well of the SPE plate was conditioned and equilibrated by 200 μL of methanol and water, respectively. Then, the 400 μL of the collected supernatant was added to each well of the plate and aspirated under a 5 H g vacuum. After washing with 200 μL of water and 50 % methanol, each well was eluted with 400 μL (200 μL × 2 times) of acetonitrile.
# Each eluted sample (10 μL) was injected into a UPLC system (ACQUITY UPLC; Waters Corp.) equipped with an ACQUITY UPLC BEH C18 column (2.1 × 50 mm, 1.7 μm; Waters Corp.) at 50 °C. SFN and IS were eluted by the mobile phase (10 mM ammonium acetate in water:0.1 % formic acid in acetonitrile [3:7, v/v]) at a flow rate of 0.6 mL/min. A mass spectrometer (Xevo TQ-S; Waters Corp.) was used for ionization of SFN or the IS (in positive ion multiple reaction-monitoring mode) at an electrospray voltage of 3.0 kV, with a source temperature of 120 °C, desolvation temperature of 500 °C, and desolvation gas flow rate of 800 L/h. SFN quantification was performed by reference to the m/z transition 178.0 → 114.0 at a cone voltage of 24 V and collision energy of 30 eV; for IS, the m/z transition was 164.0 → 130.0 at a cone voltage of 23 V and collision energy of 22 eV.
# [8] = test system: Aβ1-42-induced AD mice; assay: Retention test of Morris water maze; assay type: in vivo; details: 60 s free swimming, platform removed, control group 9.51 ± 5.2
# Experimental: as §4
# [9] = cited from earlier work
# [10] = cited from earlier work; remark: listed apart in the source
# [11] = rodents, within a few hours post-administration, oral or intraperitoneal; cited from earlier work
# [12] = following the consumption of broccoli sprouts or supplements; cited from earlier work
# [13] = single oral dose 5 mg/kg SFN (SFN in 0.5 % sodium CMC; BSEP aqueous solution equivalent to 5 mg/kg SFN)
molecule,measurement,setting,value
1-isothiocyanato-4-methylsulfonylbutane [SFN],reduction of TNF-α expression versus control (LPS stimulation only),[1]; 1:100 dilution (of SFN 210 ppm; of 1 % BSEP),30–40%
same,TNF-α gene expression,"[1]; undiluted (positive control SFN 210 ppm; 1 % BSEP solution), LPS 1 μg/mL",significant downregulation
same,number of TUNEL-positive cells in the hippocampus,[2],19.0 ± 5.2 cells
same,escape latency times by the third day,[3]; SFN 10 mg/kg oral,comparable to those of the normal control group
same,average escape latency time over the three days,[3]; SFN 10 mg/kg oral,28.01 ± 2.95 s
same,time spent in the brightly lit room before entering the dark room,"[4]; SFN 10 mg/kg oral, AD control 19",90 s
same,time spent in the brightly lit room before entering the dark room,"[4]; SFN 10 mg/kg oral, AD control 51",166 s
same,time spent in the brightly lit room before entering the dark room,"[4]; SFN 10 mg/kg oral, first of three values, AD control 25",37 s
same,brain ACh level,[5],1.2 ± 0.1 nmol/µL
same,brain AChE activity relative to normal group (100 %),[6]; AD control 162 %,105%
same,brain AChE activity,"[6]; AD control 1707.1 ± 97.12, normal 1057.44 ± 75.41",1104.65 ± 123.41 mU/mL
same,Bioavailability,[7]; single IV dose 5 mg/kg SFN (reference),100%
same,AUCinf,[7]; single IV dose 5 mg/kg SFN,390 ± 33.7 ng·h/mL
same,AUClast,[7]; single IV dose 5 mg/kg SFN,380 ± 27.5 ng·h/mL
same,Cmax,[7]; single IV dose 5 mg/kg SFN,414 ± 65.1 ng/mL
same,MRT,[7]; single IV dose 5 mg/kg SFN,0.971 ± 0.224 h
same,T1/2,[7]; single IV dose 5 mg/kg SFN,1.35 ± 0.806 h
same,Tmax,[7]; single IV dose 5 mg/kg SFN,0.170 ± 0.000 h
same,AUCinf,[7]; [13],259 ± 39.6 ng·h/mL
same,AUClast,[7]; [13],241 ± 46.1 ng·h/mL
same,Cmax,[7]; [13],96.2 ± 13.1 ng/mL
same,MRT,[7]; [13],3.14 ± 0.835 h
same,T1/2,[7]; [13],1.82 ± 0.574 h
same,Tmax,[7]; [13],1.00 ± 0.000 h
same,Bioavailability,"[7]; single oral dose 5 mg/kg SFN (SFN in 0.5 % sodium CMC; BSEP aqueous solution equivalent to 5 mg/kg SFN), versus SFN-IV",63.4 ± 12.1%
same,time spent in the quadrant where the platform was previously located,[8]; SFN 10 mg/kg,8.83 ± 5.92 s
same,doses that may lead to toxicity,[9],exceeding 150 mg/kg body weight
same,"typical urinary excretion, of the administered dose",[10],70−90%
same,SFN brain concentrations,[11],0.5 to 2 µM
same,SFN level detected in human plasma,[12],nanomolar to low micromolar levels
COc1cc2c(cc1OC)C(=O)C(CC1CCN(Cc3ccccc3)CC1)C2 (stereo not drawn) [donepezil],escape latency times by the third day,[3]; donepezil 5 mg/kg oral,comparable to those of the normal control group
same,average escape latency time over the three days,[3]; donepezil 5 mg/kg oral,34.97 ± 3.21 s
same,time spent in the brightly lit room before entering the dark room,"[4]; donepezil 5 mg/kg oral, AD control 19",100 s
same,time spent in the brightly lit room before entering the dark room,"[4]; donepezil 5 mg/kg oral, AD control 51",149 s
same,time spent in the brightly lit room before entering the dark room,"[4]; donepezil 5 mg/kg oral, first of three values, AD control 25",29 s
same,time spent in the quadrant where the platform was previously located,[8]; donepezil 5 mg/kg,16.26 ± 4.61 s
